The target in one data set is rEhAPSK (Entamoeba histolytica, UniProt C4LUW9). As to the kind of experiment: 96-well plate-based in vitro APSK activity assay (coupling assay, NADH decrease). The format is biochemical. The settings on record: for Inhibition of rEhAPSK activity: 10 μM compound, 1% DMSO. The procedure: (§1) A coupling assay to measure APSK activity was performed as described except a 96-well plate was used. Briefly, each well contained 100 μL reaction mixture, which consisted of 90 μL coupling solution and 10 μL of either compound solution (see below) or 10% DMSO. […] The coupling solution was 100 mM Tris/HCl (pH 8.0), 1 mM MgCl2, 1 mM KCl, 5 mM Mg2ATP, 1 mM NADH, 1 mM PEP, 1 U NP1, 3.5 U PK, 5.0 U LDH, and APSK (≤3 μL). […] As controls, in place of purified APSK solution (rEhAPSK or rHsAPSK), 3 μL of a blank [50 mM Tris/HCl buffer (pH 8.0)], a solvent (elution buffer), a mock (rEhSF2), or denatured APSK suspensions obtained by heat-treatment, were added to the coupling solution. The activity of each sample was calculated after removing the baseline value of the blank control.
(§2) For the inhibition assay, 2 μL of each stock solution, which were distributed in a 96-well plate, were transferred to a new plate to make a replicate. After adding 18 μL deionized water to each well and mixing, 10 μL of each diluted solution (100 μM compound solution) was again transferred into a new 96-well plate to make a replicate. Then 90 μL of the coupling solution prepared above was dispensed into each well containing the previously added 10 μL of 100 μM compound solution. As a solvent control, 10% DMSO solution (vol/vol-deionized water) was used in place of compound solution. The final concentrations of each compound and DMSO in a well were 10 μM and 1% (vol/vol), respectively. The assays were performed independently three times, and data are shown as the mean with SD.
One millimolar stock solutions used were either thawed in a replicate (96-well plate) prepared in [18] […] Subsequently, 3.4 μL of the 1 mM and each diluted stock solution were dispensed into wells of a 96-well culture plate, containing 30.6 μL deionized water and mixed well by pipetting. Ten microliters of all resulting solutions were then dispensed into wells of a 96-well plate to make triplicates and then used as described for the above inhibition assay. 10% DMSO solution was used as an inhibitor-free control. Note that the final DMSO concentration in any well was 1% (vol/vol).
(§3) In all assays, prepared mixtures in a plate were mixed on a vibrating table equipped with either an EnVision or ARVO plate reader (PerkinElmer) before starting the reaction.

Data set [1] deals with T1, rHsAPSK (recombinant APSK domain of HsPAPSS1) (Homo sapiens, UniProt O43252).
T1 construct: APSK domains of HsPAPSS1 (Ala^25—Pro^227) and -2 (Ser^15—Pro^217); His tag (pCold-I vector); made in house; host or cells: E. coli BL21(DE3)
T1 sequence (O43252 25-227): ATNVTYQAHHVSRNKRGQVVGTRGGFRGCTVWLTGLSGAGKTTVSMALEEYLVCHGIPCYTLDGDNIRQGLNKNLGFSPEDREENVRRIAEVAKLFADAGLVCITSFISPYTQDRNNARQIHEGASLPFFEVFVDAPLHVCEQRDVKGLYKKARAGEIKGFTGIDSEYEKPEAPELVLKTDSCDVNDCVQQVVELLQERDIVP
The data set is described as above. The class given is biochemical. The settings on record: 10 μM compound, 1% DMSO. As to the method: as §1, §2, §3

The subject of data set [2] is E. histolytica trophozoite. As to the kind of experiment: E. histolytica trophozoite proliferation assay (flow cytometry). The format is cell-based. The settings on record: Entamoeba histolytica, read-out: Trophozoite proliferation IC50. As to the method:
(§4) E. histolytica trophozoite proliferation and E. invadens cyst formation assays were performed essentially as described in [18] except that in addition to 0–72 and 48–72 h cyst formation assays, 0–96 and 0–120 h, and 48–96 and 48–120 h assays were also performed.
(Flow cytometry measures light scatter and fluorescence of single cells or particles in a stream.)

Data set [3] has as its system E. invadens cyst formation. As to the kind of experiment: E. invadens cyst formation (encystation) assay (flow cytometry). The format is cell-based, Entamoeba invadens. As to the method: as §4
Data set [4] can be described thus: WST-1-based cytotoxicity assay. The settings on record: human. As to the method:
(§5) Human foreskin fibroblast (HFF) cells (purchased from ATCC) were routinely maintained in DMEM supplemented with 10% fetal bovine serum, 100 units/ml penicillin, […] and 1% GlutaMAX™-I (Thermo Fisher Scientific, Waltham, MA). A WST-1-based cytotoxicity assay was performed as previously described. In detail, HFF cells were plated at 1.0×10^4 cells/100 μL medium in each well of a 96-well culture plate, and incubated overnight at 37°C in a 5% CO2 atmosphere to allow cells to adhere to the wells. […] Numbers of viable cells were then assessed using the Premix WST-1 Cell Proliferation Assay System (Takara). […] DMSO was added at 1% as a negative control whereas ionomycin was added at 30 μM as a positive control. As a blank, the above culture medium was used in place of the solutions added.
(In general: Formazan colour is commonly taken as a measure of viable cells.)

In data set [5] the test system is sulfolipids synthesized in E. histolytica trophozoites. As to the kind of experiment: Metabolic labeling by [35S]-labeled sulfate, sulfolipid synthesis. The class given is cell-based, Entamoeba histolytica. The settings on record: 6 h treatment; A-D-11, A-H-11 6.25-100 μM, E-H-05 0.5-8 μM. The procedure:
Metabolic labeling of E. histolytica trophozoites by [^35S]-labeled sulfate was performed essentially as described previously with slight modification. […] Each 10 mM stock solution (in DMSO) of the three commercially sourced compounds was serially diluted by 2-fold decrements with DMSO. The resulting diluted solutions were then added to 0.75 ml cell suspension in BI-S-33 medium at 1/100 (vol/vol). […] Note that DMSO was used as a solvent control at 1%, which was the DMSO concentration in all samples analyzed. [^35S]-labeled sulfate (45 μCi) was added 4 h after the start of treatments and labeled cells were harvested at 6 h. […] Each spot on the TLC plates was quantified using a Fuji imaging analyzer and Multi Gauge 2.2 software (FLA-7000; Fujifilm, Japan). The total cell protein was estimated using a Pierce BCA protein assay kit (Thermo Scientific, Rockford, IL, USA).

Data set [6] concerns E. histolytica trophozoites. As to the kind of experiment: Morphological analysis by phase contrast microscopy. The class given is cell-based, Entamoeba histolytica. The settings on record: 6 h treatment. From the text: Cell morphology was then observed by phase contrast microscopy using a Primovert microscope (Carl Zeiss, Germany) with a COMS camera (E3CMOS12000KPA, ToupTek, China). […] Cell images were captured using ToupView software (ToupTek).

For data set [7], the system named is E. invadens cyst formation. Details: method as in PMID 30087858. The settings on record: 10 μM; ref [18]; cited from earlier work.
Data set [8] relates to Human foreskin fibroblast (HFF) cells. As to the kind of experiment: WST-1-based cytotoxicity assay. The procedure:
as §5

[9] abbreviates: read-out: APSK activity IC50, rEhAPSK, average ± SD, more than three independent experiments.
The mark [10] stands for this setting: rEhAPSK, average ± SD, more than three independent experiments, read-out: APSK activity IC50.

Here are results for 14 compounds from publication PMC6715247 (PLoS Neglected Tropical Diseases, 2019).

Read-outs that look alike come from different tables or passages of the source. Some results are limits rather than exact numbers.

Sequence of rEhAPSK (C4LUW9 entry or part of it): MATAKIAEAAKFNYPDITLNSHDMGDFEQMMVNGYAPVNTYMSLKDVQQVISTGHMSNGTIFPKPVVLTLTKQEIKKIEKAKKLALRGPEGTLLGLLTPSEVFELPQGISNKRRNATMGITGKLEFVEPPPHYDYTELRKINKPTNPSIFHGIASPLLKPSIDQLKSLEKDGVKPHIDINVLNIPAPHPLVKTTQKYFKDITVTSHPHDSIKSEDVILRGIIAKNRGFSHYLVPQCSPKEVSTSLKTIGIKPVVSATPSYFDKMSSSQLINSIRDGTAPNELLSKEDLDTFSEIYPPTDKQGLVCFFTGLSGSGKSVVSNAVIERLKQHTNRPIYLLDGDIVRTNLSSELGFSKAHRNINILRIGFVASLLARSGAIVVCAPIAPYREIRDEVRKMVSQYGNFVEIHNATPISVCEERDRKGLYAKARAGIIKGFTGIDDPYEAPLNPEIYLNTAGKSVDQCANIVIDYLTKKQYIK

For the compound `COc1ccc(C2=NN(C3CCCCCC3)C(=O)C2(C)C)cc1OCCCCOc1ccc(-c2nnn[nH]2)cc1` [A-C-05], on rEhAPSK, the IC50 was 4.73 ± 1.16 µM and the “Inhibition of rEhAPSK activity” value was “reproducibly inhibited rEhAPSK activity”. Besides, the IC50 on rEhAPSK (setting [9]) is less than 10 µM.
For `O=C(COc1cccc(F)c1)Nc1nc(-c2ccccn2)cs1` [A-D-11, 2-(3-fluorophenoxy)-N-[4-(2-pyridyl)thiazol-2-yl]-acetamide], the IC50 on rEhAPSK is 6.3 ± 1.53 µM; at rEhAPSK (setting [9]) it was less than 10 µM; in data set [2] it was 7.5 ± 2.29 µM; in data set [3] (Entamoeba invadens, read-out: Cyst formation IC50) it was 2.27 ± 0.252 µM. For the same compound, at rEhAPSK, the “Inhibition of rEhAPSK activity” value was “reproducibly inhibited rEhAPSK activity”. The “Inhibition of rHsAPSK activity” value in data set [1] is “none showed any inhibitory activity against HsAPSK”. The “Number of cysts formed at 72 h” value in [3] (compound added at 48 h post-induction (48–72 h)) was “neither A-D-11 nor A-H-11 affected the number of cysts formed at 72 h”. In data set [4], this compound had an IC50 at 48 h greater than 100 µM. Moreover, the “Amount of sulfolipids synthesized” value in data set [5] is on record as “dose-dependently reduced the amount of sulfolipids synthesized”. The “Concentration range that produced trophozoite morphology similar to DMSO control” value in [6] was 6.25–100 μM. In data set [7], the “Effect on cyst formation” value is reported as “negative effects”.
As for `COc1cccc(-n2nnnc2S(=O)(=O)Cc2ccccc2)c1` [A-F-04], the “Inhibition of rEhAPSK activity” value on rEhAPSK is “reproducibly inhibited rEhAPSK activity”. For the same compound, the IC50 at rEhAPSK (setting [10]) is greater than 10 µM.
Take `Cc1cc(C)cc(COc2ccc3c(C)c(CCC(=O)O)c(=O)oc3c2C)c1` [A-F-07]: on rEhAPSK, the “Inhibition of rEhAPSK activity” value is given as “reproducibly inhibited rEhAPSK activity”. Besides, on rEhAPSK (setting [10]), the IC50 was determined as 7.67 ± 1.25 µM. The “Number of viable HFF cells relative to 1% DMSO control (set as 100%)” value in [8] (10 μM, 48 h) was “did not affect numbers of viable cells”.
For the compound `Cc1cc(C2=NOC(c3cc(Cl)c(F)c(Cl)c3)(C(F)(F)F)C2)ccc1C(=O)NCc1ccc2c(c1)C(C)(C)OB2O` (stereo not shown) [B-B-05], the values for the IC50 at rEhAPSK and on rEhAPSK (setting [9]) were 5.73 ± 1.36 µM and less than 10 µM, respectively. Moreover, the “Inhibition of rEhAPSK activity” value on rEhAPSK is “reproducibly inhibited rEhAPSK activity”. In data set [8] (10 µM), the “Number of viable HFF cells relative to 1% DMSO control (set as 100%)” value was “did not affect numbers of viable cells”.
As for `COc1ccc(C2=NN(C3CCCCCC3)C(=O)C3CC=CCC23)cc1OCCCCOc1ccc(-c2nnn[nH]2)cc1` (stereo not shown) [B-C-02], the “Inhibition of rEhAPSK activity” value at rEhAPSK is recorded as “reproducibly inhibited rEhAPSK activity”. The “Number of viable HFF cells relative to 1% DMSO control (set as 100%)” value in data set [8] (10 µM) was ~20 − ~60.
Consider `COc1ccc(Cl)cc1NC(=O)CN(C)C(=O)c1cnn(-c2ccccc2)n1` [B-C-08], for which the “Inhibition of rEhAPSK activity” value at rEhAPSK is “reproducibly inhibited rEhAPSK activity”. The IC50 at rEhAPSK (setting [10]) worked out at 6.57 ± 1.25 µM. Besides, the “Number of viable HFF cells relative to 1% DMSO control (set as 100%)” value in data set [8] (10 μM, 48 h) is recorded as “did not affect numbers of viable cells”.
As for `Cc1ccc(C(=O)Nc2ccc(S(=O)(=O)O)c3cc(S(=O)(=O)O)cc(S(=O)(=O)O)c23)cc1NC(=O)c1cccc(NC(=O)Nc2cccc(C(=O)Nc3cc(C(=O)Nc4ccc(S(=O)(=O)O)c5cc(S(=O)(=O)O)cc(S(=O)(=O)O)c45)ccc3C)c2)c1` [B-D-03, suramin, reference compound], on rEhAPSK, the “Inhibition of rEhAPSK activity” value is recorded as “reproducibly inhibited rEhAPSK activity”. Moreover, at rEhAPSK (setting [10]), the IC50 was 0.52 ± 0.102 µM. For the same compound, the “Number of viable HFF cells relative to 1% DMSO control (set as 100%)” value in [8] (10 µM) is “did not affect numbers of viable cells”.
As for `Cn1c(=O)c2c(S(C)(=O)=O)snc2n(C)c1=O` [C-C-06], the “Inhibition of rEhAPSK activity” value at rEhAPSK is “reproducibly inhibited rEhAPSK activity”. For the same compound, the IC50 at rEhAPSK (setting [10]) amounted to 8.67 ± 2.62 µM.
Turning to `N=C(N)Nc1ccc(-c2ccc(-c3ccc(NC(=N)N)cc3Cl)o2)c(Cl)c1` [C-F-03], the “Inhibition of rEhAPSK activity” value on rEhAPSK is “reproducibly inhibited rEhAPSK activity”. Also, the IC50 at rEhAPSK (setting [10]) is 2.03 ± 0.205 µM. For the same compound, the “Number of viable HFF cells relative to 1% DMSO control (set as 100%)” value in data set [8] (10 μM, 48 h) was “did not affect numbers of viable cells”.
In the same order, the values of `C[C@]1(COc2ccc(N3CCC(Oc4ccc(OC(F)(F)F)cc4)CC3)cc2)Cn2cc([N+](=O)[O-])nc2O1` [C-F-06, delamanid, reference compound] are “reproducibly inhibited rEhAPSK activity”, greater than 10 µM and “did not affect numbers of viable cells”.
In the same order, the values of `N=C(N)Nc1ccc(-c2ccc(-c3ccc(NC(=N)N)c(Cl)c3)o2)cc1Cl` [D-E-10] are “reproducibly inhibited rEhAPSK activity”, 0.47 ± 0.0499 µM and “did not affect numbers of viable cells”.
In the same order, the values of `O=C(Nc1nnc(S)s1)c1cc(Br)ccc1Cl` [E-G-10] are “reproducibly inhibited rEhAPSK activity”, greater than 10 µM and “did not affect numbers of viable cells”.
In the case of `C[C@H](CCC(=O)O)C[C@H](C)C[C@H](C)C(=O)/C=C(\O)[C@H](C)C[C@H](C)C/C=C/[C@@H](C)[C@@H](O)[C@@H](C)[C@@H](O)C[C@@H]1CC[C@@](C)([C@H]2CC[C@@](C)([C@@H](C)O)O2)O1` [ionomycin, reference compound], the HFF cell viability entry in [8] (30 μM, positive control) was “almost completely abolished cell viability”.
